Tested on: primary human airway epithelial cells
Assay: IL-13 stimulation of airway epithelial cells in vitro, real time RT-PCR
Assay type: cell-based
Conditions: IL-13 10 ng/mL, up to 4 days
Experimental: To confirm that airway epithelial cells are a source of serpinB2 and periostin and that these genes may be induced by cytokines relevant to asthma, we stimulated primary human airway epithelial cells in vitro with IL-13 (0.1 to 10 ng) for up to 4 days (methods in supplementary appendix).
Human primary bronchial airway epithelial cells were purchased (Clonetics—Cambrex Bio Science, Walkersville Md.) and grown as described by Gray et al.^7 Cells were purchased at passage 1 and expanded in T25 flasks until they reached 80% confluency at which time they were passaged onto 6.5 mm Transwell permeable supports at a density of 132,000 cells/filter. The cells were grown submerged in Gray's medium until approximately day 7 to 9 at which point an air-liquid interface was established. Cells became fully differentiated (ciliated and mucous producing) as determined by transepithelial voltage and resistance after 2-3 weeks on the filters. Cells were exposed to the recombinant human IL-13 (R&D Systems, Minneapolis Minn.) for up to four days at concentrations ranging from 0.1 ng/ml to 10 ng/ml. Filters were cut from the support and submerged in RLT lysis buffer (Qiagen Inc, Valencia Calif.) and stored at −80° C. before analysis of gene expression by real time RT-PCR.

**Q.** How did the “Epithelial gene expression of periostin” value turn out when “IL-13: recombinant human IL-13 (R&D Systems) used to stimulate airway epithelial cells” was run?
**A.** large increases

**Q.** And the “Epithelial gene expression of serpinB2” value?
**A.** large increases
